Source: ChEMBL document CHEMBL5126592, “Design, synthesis and activity against drug-resistant bacteria evaluation of C-20, C-23 modified 5-O-mycaminosyltylonolide derivatives” (Eur J Med Chem, 2022)
Values after ≈ are worked out from the molar mass of the structure shown. Active and inactive are the calls of the source. The rule behind the calls is not given here.

What was measured:
Escherichia coli [1] = experiment: Ratio of MBC to MIC for Escherichia coli ATCC 25922; type: functional
[2] = Genotoxicity in Salmonella typhimurium TA100 assessed as number of revertants at 8x10^-6 mg/plate incubated for 72 hrs in absence of liver S9 fraction by Ames test (reference value: 221.67 +/- 15.57); type: toxicity; details: salmonella enterica subsp. enterica serovar typhimurium, s9, 72 h
[3] = Genotoxicity in Salmonella typhimurium TA102 assessed as number of revertants at 4x10^-5 mg/plate incubated for 72 hrs in absence of liver S9 fraction by Ames test (reference value: 386.67 +/- 23.44); type: toxicity; details: salmonella enterica subsp. enterica serovar typhimurium, s9, 72 h
Staphylococcus aureus [4] = experiment: Antibacterial activity against Staphylococcus aureus ATCC 29213 at pH 8.6 incubated for 16 to 20 hrs in presence of 25% foetal bovine serum by broth microdilution method; type: functional; details: time 16-20 hrs
[5] = Genotoxicity in Salmonella typhimurium TA1537 assessed as number of revertants at 1x10^-3 mg/plate incubated for 72 hrs in presence of liver S9 fraction by Ames test (reference value: 20 +/- 5); type: toxicity, subcellular; details: salmonella enterica subsp. enterica serovar typhimurium, s9, 72 h
Staphylococcus aureus [6] = experiment: Antibacterial activity against Staphylococcus aureus ATCC 29213 at pH 8.6 incubated for 16 to 20 hrs in presence of 10% foetal bovine serum by broth microdilution method; type: functional; details: time 16-20 hrs
Staphylococcus aureus [7] = experiment: Antibacterial activity against Staphylococcus aureus ATCC 29213 at pH 8.6 incubated for 16 to 20 hrs in presence of 50% foetal bovine serum by broth microdilution method; type: functional; details: time 16-20 hrs
Staphylococcus aureus [8] = experiment: Antibacterial activity against Staphylococcus aureus ATCC 25923 infected in kunming mouse assessed as reduction in lung congestion at 20 to 40 mg/kg, iv measured after 1 hr by hematoxylin and eosin staining based microscopic analysis; type: functional, organism-based; details: dose 20-40 mg/kg
Staphylococcus aureus [9] = experiment: Antibacterial activity against Staphylococcus aureus ATCC 29213 incubated for 16 to 20 hrs using 10^4 CFU/ml bacterial inoculum by broth microdilution method; type: functional; details: time 16-20 hrs
Escherichia coli [10] = experiment: Antibacterial activity against Escherichia coli ATCC 25922 at pH 8.2 incubated for 16 to 20 hrs by broth microdilution method; type: functional; details: time 16-20 hrs
Escherichia coli [11] = experiment: Antibacterial activity against Escherichia coli ATCC 25922 at pH 7.2 incubated for 16 to 20 hrs by broth microdilution method; type: functional; details: time 16-20 hrs
Escherichia coli [12] = experiment: Induction of drug resistance in Escherichia coli ATCC 25922 assessed as increase in MIC measured after 30 passages by broth microdilution method; type: functional
Staphylococcus aureus [13] = experiment: Antibacterial activity against Staphylococcus aureus ATCC 29213 incubated for 16 to 20 hrs using 10^7 CFU/ml bacterial inoculum by broth microdilution method; type: functional; details: time 16-20 hrs
[14] = Genotoxicity in Salmonella typhimurium TA98 assessed as number of revertants at 2x10^-4 mg/plate incubated for 72 hrs in presence of liver S9 fraction by Ames test (reference value: 43.67+/- 7.1); type: toxicity, subcellular; details: salmonella enterica subsp. enterica serovar typhimurium, s9, 72 h
Enterococcus faecium = experiment: Antibacterial activity against Enterococcus faecium incubated for 16 to 20 hrs by broth microdilution method; type: functional; details: time 16-20 hrs
Staphylococcus aureus [15] = experiment: Antibacterial activity against Staphylococcus aureus ATCC 29213 incubated for 16 to 20 hrs using 10^6 CFU/ml bacterial inoculum by broth microdilution method; type: functional; details: time 16-20 hrs
Escherichia coli [16] = experiment: Antibacterial activity against Escherichia coli incubated for 16 to 20 hrs by broth microdilution method; type: functional; details: time 16-20 hrs
[17] = Genotoxicity in Salmonella typhimurium TA1535 assessed as number of revertants at 2x10^-4 mg/plate incubated for 72 hrs in presence of liver S9 fraction by Ames test (reference value: 15.33 +/- 2.52); type: toxicity, subcellular; details: salmonella enterica subsp. enterica serovar typhimurium, s9, 72 h
[18] = Genotoxicity in Salmonella typhimurium TA102 assessed as number of revertants at 1.6x10^-6 mg/plate incubated for 72 hrs in absence of liver S9 fraction by Ames test (reference value: 386.67 +/- 23.44); type: toxicity; details: salmonella enterica subsp. enterica serovar typhimurium, s9, 72 h
[19] = Genotoxicity in Salmonella typhimurium TA1537 assessed as number of revertants at 8x10^-6 mg/plate incubated for 72 hrs in presence of liver S9 fraction by Ames test (reference value: 20 +/- 5); type: toxicity, subcellular; details: salmonella enterica subsp. enterica serovar typhimurium, s9, 72 h
[20] = Toxicity in Kunming mouse infected with Staphylococcus aureus ATCC 25923 assessed as appearance of pink and spongy lungs at 20 to 40 mg/kg, iv measured after 1 hr by hematoxylin and eosin staining based microscopic analysis; type: organism-based; details: in vivo, dose 20-40 mg/kg
[21] = Genotoxicity in Salmonella typhimurium TA100 assessed as number of revertants at 4x10^-5 mg/plate incubated for 72 hrs in absence of liver S9 fraction by Ames test (reference value: 221.67 +/- 15.57); type: toxicity; details: salmonella enterica subsp. enterica serovar typhimurium, s9, 72 h
[22] = Genotoxicity in Salmonella typhimurium TA100 assessed as number of revertants at 1x10^-3 mg/plate incubated for 72 hrs in presence of liver S9 fraction by Ames test (reference value: 204.33 +/- 8.14); type: toxicity, subcellular; details: salmonella enterica subsp. enterica serovar typhimurium, s9, 72 h
[23] = Genotoxicity in Salmonella typhimurium TA98 assessed as number of revertants at 4x10^-5 mg/plate incubated for 72 hrs in absence of liver S9 fraction by Ames test (reference value: 57.33 +/- 3.06); type: toxicity; details: salmonella enterica subsp. enterica serovar typhimurium, s9, 72 h
Escherichia coli [24] = experiment: Antibacterial activity against Escherichia coli ATCC 25922 incubated for 16 to 20 hrs in absence of foetal bovine serum by broth microdilution method; type: functional; details: time 16-20 hrs
Staphylococcus aureus [25] = experiment: Antibacterial activity against Staphylococcus aureus ATCC 29213 incubated for 16 to 20 hrs by broth microdilution method; type: functional; details: time 16-20 hrs
Staphylococcus aureus [26] = experiment: Antibacterial activity against Staphylococcus aureus incubated for 16 to 20 hrs by broth microdilution method; type: functional; details: time 16-20 hrs
Staphylococcus aureus [27] = experiment: Ratio of MBC to MIC for Staphylococcus aureus ATCC 29213; type: functional
[28] = Genotoxicity in Salmonella typhimurium TA1535 assessed as number of revertants at 1x10^-3 mg/plate incubated for 72 hrs in presence of liver S9 fraction by Ames test (reference value: 15.33 +/- 2.52); type: toxicity, subcellular; details: salmonella enterica subsp. enterica serovar typhimurium, s9, 72 h
Escherichia coli [29] = experiment: Antibacterial activity against Escherichia coli ATCC 25922 at pH 6.8 incubated for 16 to 20 hrs by broth microdilution method; type: functional; details: time 16-20 hrs
[30] = Toxicity in Kunming mouse infected with Staphylococcus aureus ATCC 25923 assessed as hyperelastic lung tissue at 20 to 40 mg/kg, iv measured after 1 hr by hematoxylin and eosin staining based microscopic analysis; type: organism-based; details: in vivo, dose 20-40 mg/kg
[31] = Genotoxicity in Salmonella typhimurium TA1537 assessed as number of revertants at 1.6x10^-6 mg/plate incubated for 72 hrs in presence of liver S9 fraction by Ames test (reference value: 20 +/- 5); type: toxicity, subcellular; details: salmonella enterica subsp. enterica serovar typhimurium, s9, 72 h
[32] = Genotoxicity in Salmonella typhimurium TA100 assessed as number of revertants at 2x10^-4 mg/plate incubated for 72 hrs in absence of liver S9 fraction by Ames test (reference value: 221.67 +/- 15.57); type: toxicity; details: salmonella enterica subsp. enterica serovar typhimurium, s9, 72 h
[33] = Genotoxicity in Salmonella typhimurium TA102 assessed as number of revertants at 8x10^-6 mg/plate incubated for 72 hrs in presence of liver S9 fraction by Ames test (reference value: 465.33 +/- 18.04); type: toxicity, subcellular; details: salmonella enterica subsp. enterica serovar typhimurium, s9, 72 h
[34] = Genotoxicity in Salmonella typhimurium TA1535 assessed as number of revertants at 4x10^-5 mg/plate incubated for 72 hrs in presence of liver S9 fraction by Ames test (reference value: 15.33 +/- 2.52); type: toxicity, subcellular; details: salmonella enterica subsp. enterica serovar typhimurium, s9, 72 h

In the case of CC[C@H]1OC(=O)C[C@@H](O)[C@H](C)[C@@H](O[C@@H]2O[C@H](C)[C@@H](O)[C@H](N(C)C)[C@H]2O)[C@@H](CCN(C)Cc2cn(-c3cnc4ccccc4c3)nn2)C[C@@H](C)C(=O)/C=C/C(C)=C/[C@@H]1CN1CCCCCC1, the Ratio (Escherichia coli [1]) is reported as 2, the Activity [2] is reported as 226 and the Activity [3] is reported as 429.33. The MIC (Staphylococcus aureus [4]) was 1 µg/mL, the Activity [5] was 15.67 and the MIC (Staphylococcus aureus [6]) was 0.5 µg/mL. The MIC (Staphylococcus aureus [7]) was 2 µg/mL, the Activity (Staphylococcus aureus [8]) was “Active” and the MIC (Staphylococcus aureus [9]) was 0.125 µg/mL (≈ 0.139 µM). The MIC (Escherichia coli [10]) was 0.25 µg/mL (≈ 0.277 µM), the MIC (Escherichia coli [11]) was 1 µg/mL (≈ 1.11 µM) and the Activity (Escherichia coli [12]) was “Active”. The MIC (Staphylococcus aureus [13]) was 0.25 µg/mL (≈ 0.277 µM), the Activity [14] was 44.33 and the MIC (Enterococcus faecium) was 1 µg/mL (≈ 1.11 µM). For the same molecule, the MIC (Staphylococcus aureus [15]) was 0.25 µg/mL (≈ 0.277 µM), the MIC (Escherichia coli [16]) was 1 µg/mL (≈ 1.11 µM) and the Activity [17] was 12.67. For the same molecule, the Activity [18] was 371.33, the Activity [19] was 17.67 and the Activity [20] was “Non-Toxic”. It also gave an Activity [21] of 201.67, an Activity [22] of 174.67 and an Activity [23] of 62.33. For the same molecule, the MIC (Escherichia coli [24]) was 1 µg/mL (≈ 1.11 µM), the MIC (Staphylococcus aureus [25]) was 0.125 µg/mL (≈ 0.139 µM) and the MIC (Staphylococcus aureus [26]) was 0.25 µg/mL (≈ 0.277 µM). The Ratio (Staphylococcus aureus [27]) was 2, the Activity [28] was 11 and the MIC (Escherichia coli [29]) was 8 µg/mL (≈ 8.87 µM). The Activity [30] was “Non-Toxic”, the Activity [31] was 15 and the Activity [32] was 223.33. The Activity [33] was 466.67 and the Activity [34] was 15.
